Like-named read-outs stand apart in the source and are kept apart here. One block for each compound: values may come before it.
What was measured:
U87 cells = assay: in vitro cell proliferation assay ([3H]-thymidine incorporation), U87; assay type: cell-based, human
Method: (§1) For the in vitro cell proliferation assay, between 2.5 and 5×10^4 of U87 or SK-HEP-1 cells were seeded in a 24 well tissue culture microplate in a final volume of 1 mL of medium with 10% serum and incubated for 24 hours at 37° C. and 5% CO2. The medium was then replaced with serum-free medium and incubated overnight. The next morning the agent was freshly dissolved in dimethyl sulfoxide (DMSO) and the medium was replaced with complete medium containing the agent at different concentrations in triplicate. The final concentration of DMSO was 0.1%. The control used was a microplate well with cells and without agent. The cells were incubated for 48 to 72 hrs at 37° C. and 5% CO2. After the incubation, the medium was changed and replaced with 1 mL of complete medium containing [^3H]-thymidine (1 pCi/assay). The plate was incubated at 37° C. and 5% CO2 for 4 hrs. The medium as removed, and the cells were washed with PBS at 37° C. The cells were fixed with a mix of ethanol:acetic acid (3:1), washed with water, and precipitated 3 times with 10% of ice-cold TCA (trichloroacetic acid). Finally 500 μL of PCA (perchloric acid) were added to the wells and the microplates were heated for 30 min at 65° C. and 30 min at 75° C. The contents of each well were then transferred to a scintillation vial with 10 mL of scintillation cocktail and the activity was measured in CPM (count per minute) on a liquid scintillation counter Tri-Carb from Packard.

[1] = tested on: Lung Carcinoma (NCI-H460); assay: in vitro cell proliferation assay, NCI-H460; assay type: cell-based; conditions: Table 5
[2] = tested on: U87 cells in nude mice brain; assay: intracerebral human brain tumor model (U87), survival; assay type: in vivo; conditions: doxorubicin 6 mg/kg, (DoxSu)3-An2 40 mg/kg i.v. 1× per week
Method: The intracerebral human brain tumor model was established by stereotactic inoculation of 5×10^5 U87 cells in nude mice brain. Female athymic nude mice (Crl:Nu/Nu-nuBR; 20-25 g, 4-6 weeks old; Charles River Canada, St-Constant, QC) were used for tumor models and were maintained in a pathogen-free environment. One hour before surgery, mice received a subcutaneous injection of buprenorphine (0.1 mg kg^−1). For tumor cell inoculation, mice were anesthetized by i.p. injection of ketamine/xylazine (120/10 mg kg^−1) and placed in a stereotactic apparatus (Kopf; Tujunga, Calif.). A burr hole was drilled 1.5 mm anterior and 2.5 mm lateral to the bregma. The cell suspension in 5 μL of serum free cell culture medium was injected over a 5 minute period using a Hamilton syringe at a depth of 3.5 mm.
Drug treatment started 3 days post-inoculation (Table 8). […] Drug solutions were prepared in dextrose 5% water (D5W). Injection solutions were freshly prepared before each administration. Clinical signs of disease progression and body weights were monitored everyday. When mice reached terminal endpoints (20% of decrease in body weight), they were sacrificed by carbon dioxide asphyxiation.

mouse brain [3] = conditions: in vivo
Method: (§2) The uptake of [^125I]-polypeptides to the luminal side of mouse brain capillaries was measured using the in situ brain perfusion method adapted in our laboratory for the study of agent uptake in the mouse brain.
(§3) Polypeptides were iodinated with standard procedures using iodo-beads from Sigma. Briefly polypeptides were diluted in 0.1 M phosphate buffer, pH 6.5 (PB). Two iodo-beads were used for each protein. These beads were washed twice with 3 mL of PB on a Whatman filter and re-suspended in 60 of PB. ^125I (1 mCi) from Amersham-Pharmacia biotech was added to the bead suspension for 5 min at room temperature. Each iodination was initiated by the addition of the polypeptide (100 μg). After an incubation of 10 min at room temperature, the free iodine was removed by HPLC.
(§4) Briefly, the right common carotid of ketamine/xylazine (140/8 mg/kg i.p.) anesthetized mice was exposed and ligated at the level of the bifurcation of the common carotid, rostral to the occipital artery. The common carotid was then catheterized rostrally with polyethylene tubing filled with heparin (25 U/mL) and mounted on a 26-gauge needle. The syringe containing the perfusion fluid ([^125I]-polypeptides or [^14C]-inulin in Krebs/bicarbonate buffer at a pH7.4 gassed with 95% O2 and 5% CO2) was placed in an infusion pump (Harvard pump PHD 2000; Harvard Apparatus) and connected to the catheter. Prior to the perfusion, the contralateral blood flow contribution was eliminated by severing heart ventricles. The brain was perfused for the indicated times at a flow rate of 1.15 mL/min. After 14.5 min of perfusion, the brain was further perfused for 60 seconds with Krebs buffer to wash the excess of [^125I]-proteins. Mice were then decapitated to terminate perfusion and the right hemisphere was isolated on ice before being subjected to capillary depletion. Aliquots of homogenates, supernatants, pellets and perfusates were taken to measure their contents in [^125I]-conjugates by TCA precipitation and to evaluate the apparent volume of distribution.

SK-HEP-1 cells [4] = assay: in vitro cell proliferation assay ([3H]-thymidine incorporation), SK-HEP-1
Method: as §1

[5] = plasma kinetics after bolus administration; assay type: in vivo, CD-1 mice; conditions: IV bolus, 20 mg/kg, mice
Method: FIG. 8 describes the plasma kinetics of Etop-An2(3:1) following administration as a bolus. Radiolabeled (^125I) Etop-An2 (20 mg/kg) was injected in bolus by intravenous (i.v.) or intraperitoneal (i.p.) routes in CD-1 mice weighing about 25-30 g. The injection solution was composed of 12.5% dimethylsulfoxide (DMSO), 12.5% anhydrous ethanol 25% polyethylene glycol 400 (PEG400) and 50% NaCl/Glycine buffer. At several time intervals (0.5, 1, 2, and 6 hours) the blood was collected by cardiac puncture and animals were sacrificed. After blood centrifugation, the plasma radioactivity was measured in a gamma counter (Wizard 1470 Automatic Gamma Counter). The radioactivity was interpreted as % of injected dose per gram of plasma. Results were plotted using GraphPad prism software and the area under the curve (AUC) for each injection mode was calculated. The bioavailability of intraperitoneal Etop-An2 conjugate was then estimated by dividing the AUC after i.p. injection by the AUC after i.v. injection.

[6] = tissue distribution after IV bolus; assay type: in vivo; conditions: thirty minutes after IV bolus, mice, FIG. 12
Method: The effect of conjugation of an agent to a vector on distribution of the agent or the pharmacokinetics of a polypeptide that is conjugated to an agent was evaluated by administering a labeled polypeptide or conjugate to an animal and measuring distribution of the polypeptide or conjugate to organs (e.g., using ^3H or ^125I labeled conjugates) to mice. Similar experiments can be performed with compounds that include any of polypeptides described herein (e.g., the polypeptides described in Table 1 such as AngioPep-3, AngioPep-4a, AngioPep-4b, AngioPep-5, AngioPep-6, and AngioPep-7, or analogs thereof). Here, the unconjugated anticancer agent and the conjugates were injected intravenously to mice as a bolus. Tissues were collected at different times (0.25, 0.5, 1, and 4 hrs) and homogenized. To quantify the amount of ^3H-labeled conjugate, tissue homogenates were digested with tissue solubilizer, and 10 mL of liquid scintillator was added to samples. The amount of the ^125I labeled conjugate, in the different tissues is measured after TCA precipitation. Radioactivity associated with the tissues is quantified. The area under the curve (AUC 0-4) is estimated using the Prism software and is plotted for the different tissues.
FIG. 11 compares the brain distribution of Etop-An2(3:1) versus unconjugated etoposide thirty minutes after IV bolus administration to mice.

SK-HEP-1 cells [7] = tested on: SK-HEP-1 cells
Method: as §1

P-gp = P-gp (Mus musculus, UniProt P21447)
Method: as §2
Briefly, the right common carotid of ketamine/xylazine (140/8 mg/kg i.p.) anesthetized mice was exposed and ligated at the level of the bifurcation of the common carotid, rostral to the occipital artery. The common carotid was then catheterized rostrally with polyethylene tubing filled with heparin (25 U/mL) and mounted on a 26-gauge needle. The syringe containing the perfusion fluid ([^125I]-polypeptides or [^14C]-inulin in Krebs/bicarbonate buffer at a pH7.4 gassed with 95% O2 and 5% CO2) was placed in an infusion pump (Harvard pump PHD 2000; Harvard Apparatus) and connected to the catheter. Prior to the perfusion, the contralateral blood flow contribution was eliminated by severing heart ventricles. The brain was perfused for the indicated times at a flow rate of 1.15 mL/min. After 14.5 min of perfusion, the brain was further perfused for 60 seconds with Krebs buffer to wash the excess of [^125I]-proteins. Mice were then decapitated to terminate perfusion and the right hemisphere was isolated on ice before being subjected to capillary depletion. […]

mouse brain [8] = assay: in situ brain perfusion (brain uptake)
Method: as §2, §3, §4

[9] = literature data (Reddy et al. 2005); cited from earlier work
[10] = Homo sapiens, U-87 MG, Table 5, incubation 48 to 72 hrs, read-out: IC50 (nM) Glioblastoma (U87)
[11] = Homo sapiens, SK-HEP1, read-out: IC50 (nM) Hepatocarcinoma (SK-Hep-1)

P-gp, sequence (P21447 whole entry, the tested form may be a part): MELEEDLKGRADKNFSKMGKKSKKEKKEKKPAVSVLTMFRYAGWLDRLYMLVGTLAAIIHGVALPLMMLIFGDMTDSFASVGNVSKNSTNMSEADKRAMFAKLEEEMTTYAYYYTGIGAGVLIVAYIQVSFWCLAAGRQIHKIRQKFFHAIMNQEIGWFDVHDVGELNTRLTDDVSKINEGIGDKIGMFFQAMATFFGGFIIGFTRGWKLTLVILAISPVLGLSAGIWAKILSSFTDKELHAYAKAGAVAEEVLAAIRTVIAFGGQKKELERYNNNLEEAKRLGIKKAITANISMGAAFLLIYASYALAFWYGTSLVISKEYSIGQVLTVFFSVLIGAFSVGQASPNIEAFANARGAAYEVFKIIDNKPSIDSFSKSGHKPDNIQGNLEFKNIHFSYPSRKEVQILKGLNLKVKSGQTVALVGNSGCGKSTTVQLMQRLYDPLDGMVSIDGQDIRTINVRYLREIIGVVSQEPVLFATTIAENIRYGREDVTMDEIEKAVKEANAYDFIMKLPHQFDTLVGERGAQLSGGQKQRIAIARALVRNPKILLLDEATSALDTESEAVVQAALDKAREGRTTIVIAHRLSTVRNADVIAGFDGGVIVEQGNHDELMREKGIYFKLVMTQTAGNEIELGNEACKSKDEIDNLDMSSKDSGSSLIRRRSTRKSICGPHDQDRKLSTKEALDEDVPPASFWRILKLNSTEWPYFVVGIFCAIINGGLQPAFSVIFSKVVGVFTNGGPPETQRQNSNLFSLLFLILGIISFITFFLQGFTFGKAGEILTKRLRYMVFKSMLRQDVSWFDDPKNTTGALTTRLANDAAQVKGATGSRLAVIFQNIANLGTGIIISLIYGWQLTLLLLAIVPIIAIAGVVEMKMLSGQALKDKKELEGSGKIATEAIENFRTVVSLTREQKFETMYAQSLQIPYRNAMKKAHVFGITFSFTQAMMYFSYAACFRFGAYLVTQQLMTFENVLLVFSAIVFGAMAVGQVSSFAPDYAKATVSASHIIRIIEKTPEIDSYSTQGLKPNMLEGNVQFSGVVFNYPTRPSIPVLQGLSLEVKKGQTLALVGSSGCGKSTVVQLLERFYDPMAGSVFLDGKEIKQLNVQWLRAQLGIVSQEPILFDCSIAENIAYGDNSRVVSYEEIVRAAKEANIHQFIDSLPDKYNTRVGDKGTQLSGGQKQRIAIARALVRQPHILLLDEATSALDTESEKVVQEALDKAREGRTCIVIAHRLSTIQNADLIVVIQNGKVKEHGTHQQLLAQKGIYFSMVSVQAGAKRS

Compound: COc1cccc2c1C(=O)c1c(O)c3c(c(O)c1C2=O)C[C@@](O)(C(=O)CO)C[C@@H]3O[C@H]1C[C@H](N)[C@H](O)[C@H](C)O1 [Doxorubicin, doxorubicin]
- IC50 (U87 cells; [10]): 18 nM
- IC50 ([1]; Homo sapiens, NCI-H460): 11 nM
- Survival (days) Mean Trial 1 ([2]; Trial 1): 20.6 days
- Survival (days) Median Trial 1 ([2]; Trial 1, treatment from 3 days post-inoculation): 21 days
- Survival (days) Median Trial 2 ([2]; Trial 2): 23 days
- Brain Kin (mouse brain [3]; pH 7.4): 0.00028 mL/s/g
- IC50 (SK-HEP-1 cells [4]; [11]): 10 nM

Compound: COc1cc([C@@H]2c3cc4c(cc3[C@@H](O[C@@H]3O[C@@H]5CO[C@@H](C)O[C@H]5[C@H](O)[C@H]3OC(=O)CCCC(=O)NCCCC[C@H](NC(=O)CNC(=O)[C@H](CCCNC(=N)N)NC(=O)[C@H](CO)NC(=O)CNC(=O)CNC(=O)[C@H](Cc3ccc(O)cc3)NC(=O)[C@H](Cc3ccccc3)NC(=O)[C@H](Cc3ccccc3)NC(=O)[C@@H](NC(=O)CCCC(=O)O[C@H]3[C@H](O[C@@H]5c6cc7c(cc6[C@@H](c6cc(OC)c(O)c(OC)c6)[C@H]6C(=O)OC[C@@H]65)OCO7)O[C@@H]5CO[C@@H](C)O[C@H]5[C@@H]3O)[C@@H](C)O)C(=O)N[C@@H](CCCNC(=N)N)C(=O)N[C@@H](CC(N)=O)C(=O)N[C@@H](CC(N)=O)C(=O)N[C@@H](Cc3ccccc3)C(=O)N[C@@H](CCCCNC(=O)CCCC(=O)O[C@H]3[C@H](O[C@@H]5c6cc7c(cc6[C@@H](c6cc(OC)c(O)c(OC)c6)[C@H]6C(=O)OC[C@@H]65)OCO7)O[C@@H]5CO[C@@H](C)O[C@H]5[C@@H]3O)C(=O)N[C@H](C(=O)N[C@@H](CCC(=O)O)C(=O)N[C@@H](CCC(=O)O)C(=O)N[C@@H](Cc3ccc(O)cc3)C(=O)O)[C@@H](C)O)[C@H]3COC(=O)[C@H]23)OCO4)cc(OC)c1O [Etop-An2(3:1), ((2″-Glutaryl)-Etop)3-(Angiopep2)]
- IC50 (U87 cells; U-87 Cells, 24 hours, read-out: IC50 (nM) 24 hours): 453 nM
- IC50 (U87 cells; U-87 Cells, 48 hours, read-out: IC50 (nM) 48 hours): 151 nM
- IC50 (U87 cells; U-87 Cells, 72 hours, read-out: IC50 (nM) 72 hours): 164 nM
- AUC0-∞ (hr°μg/mL) [5]: 82 hr°μg/mL
- Elim. Rate Const. [5]: 1.6 h⁻¹
- T1/2α [5]: 25.8 min
- concentration in the tissues studied versus unconjugated etoposide [6]: increased concentration in the tissues studied
- IC50 (SK-HEP-1 cells [7]): 59 nM
- Vd (slope) relative to the corresponding unconjugated drug (mouse brain [3]): higher
- P-gp substrate status (P-gp): not a P-gp substrate
- IC50 (SK-HEP-1 cells [4]; read-out: IC50 (nM) 24 hours, SK-HEP-1, 24 hours): 160 nM
- IC50 (SK-HEP-1 cells [4]; read-out: IC50 (nM) 72 hours, SK-HEP-1, 72 hours): 52 nM

- IC50 (U87 cells; [10]): 145 nM
- IC50 ([1]; Homo sapiens, NCI-H460): 90 nM
- Brain Kin (mouse brain [8]): 9e-05 mL/s/g
- IC50 (SK-HEP-1 cells [4]; [11]): 62 nM
Compound: COc1cc(C2c3cc4c(cc3[C@@H](O[C@@H]3O[C@@H]5CO[C@@H](C)O[C@H]5[C@H](O)[C@H]3O)[C@H]3COC(=O)[C@H]23)OCO4)cc(OC)c1OC(=O)CN(C)C (stereo partly drawn) [EtopDMG, Etoposide 4′-Dimethylglycine]

- IC50 (U87 cells; Homo sapiens, U-87 MG, U-87 Cells, 24 hours, read-out: IC50 (nM) 24 hours): 160 nM
- IC50 (U87 cells; Homo sapiens, U-87 MG, U-87 Cells, 48 hours, read-out: IC50 (nM) 48 hours): 221 nM
- IC50 (U87 cells; Homo sapiens, U-87 MG, U-87 Cells, 72 hours, read-out: IC50 (nM) 72 hours): 145 nM
- IC50 (SK-HEP-1 cells [7]): 56 nM
- IC50 (SK-HEP-1 cells [4]; Homo sapiens, SK-HEP1, 24 h, read-out: IC50 (nM) 24 hours): 116 nM
- IC50 (SK-HEP-1 cells [4]; Homo sapiens, SK-HEP1, 72 h, read-out: IC50 (nM) 72 hours): 50 nM
Compound: COc1cc([C@@H]2c3cc4c(cc3[C@@H](O[C@@H]3O[C@@H]5CO[C@@H](C)O[C@H]5[C@H](O)[C@H]3O)[C@H]3COC(=O)[C@H]23)OCO4)cc(OC)c1O [Etoposide]
- T1/2α [9]: 7.8 min

Compound: (Etoposide-4′-Dimethylglycine-2″-Glutaric)3-Angiopep-2 Conjugate [EtopDMG-An2(3:1)]
- IC50 (U87 cells; Table 5, incubation 48 to 72 hrs, read-out: IC50 (nM) Glioblastoma (U87)): 330 nM
- IC50 [1]: 148 nM
- IC50 (SK-HEP-1 cells [4]; read-out: IC50 (nM) Hepatocarcinoma (SK-Hep-1), Table 5, incubation 48 to 72 hrs): 48 nM

— patent publication US8828925B2, “Etoposide and doxorubicin conjugates for drug delivery” (Angiochem Inc., priority 2008, dated 2014)
